Measured values reported in ChEMBL document CHEMBL4804286, “3-amino-4-(4-(4 (dimethylcarbamoyl) phenyl)-1,4-diazepan-1-yl) thieno [2,3-b] pyridine-2-carboxamide for use in cancer therapy and formulations comprising the same” (2020).
“And” between values parts separate entries of the source, which are not always exact repeats. Equal values may be shown once. The source made the active and inactive calls. No cut-off for these calls is given here.

Columns and labels:
[1] = biological target: Non-receptor tyrosine-protein kinase TNK1 (Homo sapiens) (UniProt Q13470); test: Inhibition of human TNK1 assessed as percent of control at 2000 nM by KINOMEscan assay relative to control; design: scale not given: the % may be the effect or the level left
[2] = biological target: Death-associated protein kinase 3 (Homo sapiens) (UniProt O43293); test: Inhibition of human DAPK3 assessed as percent of control at 2000 nM by KINOMEscan assay relative to control; design: scale not given: the % may be the effect or the level left
[3] = biological target: Dual specificity mitogen-activated protein kinase kinase 1 (Homo sapiens) (UniProt Q02750); test: Inhibition of human MEK1 assessed as percent of control at 2000 nM by KINOMEscan assay relative to control; design: scale not given: the % may be the effect or the level left
[4] = biological target: Tyrosine-protein kinase ITK/TSK (Homo sapiens) (UniProt Q08881); test: Inhibition of human ITK assessed as percent of control at 2000 nM by KINOMEscan assay relative to control; design: scale not given: the % may be the effect or the level left
[5] = biological target: Protein-tyrosine kinase 6 (Homo sapiens) (UniProt Q13882); test: Inhibition of human BRK assessed as percent of control at 2000 nM by KINOMEscan assay relative to control; design: scale not given: the % may be the effect or the level left
Myc-CaP [6] = test: Antitumor activity against murine castration-resistant Myc-CaP cells xenografted in male FVB mouse assessed as suppression of tumor volume; format: functional
[7] = biological target: Serine/threonine-protein kinase Nek9 (Homo sapiens) (UniProt Q8TD19); test: Inhibition of human NEK9 assessed as percent of control at 2000 nM by KINOMEscan assay relative to control; design: scale not given: the % may be the effect or the level left
[8] = biological target: Serine/threonine-protein kinase 35 (Homo sapiens) (UniProt Q8TDR2); test: Inhibition of human STK35 assessed as percent of control at 2000 nM by KINOMEscan assay relative to control; design: scale not given: the % may be the effect or the level left
[9] = biological target: Vascular endothelial growth factor receptor 1 (Homo sapiens) (UniProt P17948); test: Inhibition of human FLT1 assessed as percent of control at 2000 nM by KINOMEscan assay relative to control; design: scale not given: the % may be the effect or the level left
[10] = biological target: Calcium/calmodulin-dependent protein kinase type II subunit delta (Homo sapiens) (UniProt Q13557); test: Inhibition of human CAMK2D assessed as percent of control at 2000 nM by KINOMEscan assay relative to control; design: scale not given: the % may be the effect or the level left
[11] = test system: Proto-oncogene tyrosine-protein kinase receptor Ret (Homo sapiens), P07949 [V804M]; test: Inhibition of human RET V804M mutant assessed as percent of control at 2000 nM by KINOMEscan assay relative to control; design: scale not given: the % may be the effect or the level left
[12] = biological target: Testis-specific serine/threonine-protein kinase 3 (Homo sapiens) (UniProt Q96PN8); test: Inhibition of human TSSK3 assessed as percent of control at 2000 nM by KINOMEscan assay relative to control; design: scale not given: the % may be the effect or the level left
[13] = biological target: Ephrin type-A receptor 7 (Homo sapiens) (UniProt Q15375); test: Inhibition of human EPHA7 assessed as percent of control at 2000 nM by KINOMEscan assay relative to control; design: scale not given: the % may be the effect or the level left
[14] = biological target: STE20-like serine/threonine-protein kinase (Homo sapiens) (UniProt Q9H2G2); test: Inhibition of human SLK assessed as percent of control at 2000 nM by KINOMEscan assay relative to control; design: scale not given: the % may be the effect or the level left
[15] = biological target: Receptor-interacting serine/threonine-protein kinase 1 (Homo sapiens) (UniProt Q13546); test: Inhibition of human RIPK1 assessed as percent of control at 2000 nM by KINOMEscan assay relative to control; design: scale not given: the % may be the effect or the level left
[16] = test system: Tyrosine-protein kinase ABL1 (Homo sapiens), P00519 [UNDEFINED MUTATION]; test: Inhibition of phosphorylated human ABL1 […] mutant assessed as percent of control at 2000 nM by KINOMEscan assay relative to control; design: scale not given: the % may be the effect or the level left
[17] = test system: Receptor-type tyrosine-protein kinase FLT3 (Homo sapiens), P36888 [D835H]; test: Inhibition of human FLT3 D835H mutant assessed as percent of control at 2000 nM by KINOMEscan assay relative to control; design: scale not given: the % may be the effect or the level left
[18] = biological target: Mitogen-activated protein kinase kinase kinase 15 (Homo sapiens) (UniProt Q6ZN16); test: Inhibition of human MAP3K15 assessed as percent of control at 2000 nM by KINOMEscan assay relative to control; design: scale not given: the % may be the effect or the level left
[19] = biological target: Tyrosine-protein kinase Fyn (Homo sapiens) (UniProt P06241); test: Inhibition of human FYN assessed as percent of control at 2000 nM by KINOMEscan assay relative to control; design: scale not given: the % may be the effect or the level left
[20] = biological target: Protein kinase C delta type (Homo sapiens) (UniProt Q05655); test: Inhibition of human PRKCD assessed as percent of control at 2000 nM by KINOMEscan assay relative to control; design: scale not given: the % may be the effect or the level left
[21] = biological target: Receptor-type tyrosine-protein kinase FLT3 (Homo sapiens) (UniProt P36888); test: Inhibition of human FLT3 assessed as percent of control at 2000 nM by KINOMEscan assay relative to control; design: scale not given: the % may be the effect or the level left
[22] = biological target: Dual specificity protein kinase TTK (Homo sapiens) (UniProt P33981); test: Inhibition of human TTK assessed as percent of control at 2000 nM by KINOMEscan assay relative to control; design: scale not given: the % may be the effect or the level left
Myc-CaP [23] = test: Antiproliferative activity against murine castration-resistant Myc-CaP cells at 1 uM assessed as growth inhibition in presence of 5 uM enzalutamide relative to control; format: functional; conditions: Mus musculus
[24] = biological target: Mitogen-activated protein kinase kinase kinase 13 (Homo sapiens) (UniProt O43283); test: Inhibition of human LZK assessed as percent of control at 2000 nM by KINOMEscan assay relative to control; design: scale not given: the % may be the effect or the level left
[25] = biological target: Interleukin-1 receptor-associated kinase 1 (Homo sapiens) (UniProt P51617); test: Inhibition of human IRAK1 assessed as percent of control at 2000 nM by KINOMEscan assay relative to control; design: scale not given: the % may be the effect or the level left
[26] = biological target: Calcium/calmodulin-dependent protein kinase type II subunit beta (Homo sapiens) (UniProt Q13554); test: Inhibition of human CAMK2B assessed as percent of control at 2000 nM by KINOMEscan assay relative to control; design: scale not given: the % may be the effect or the level left
[27] = biological target: Mitogen-activated protein kinase kinase kinase 10 (Homo sapiens) (UniProt Q02779); test: Inhibition of human MLK2 assessed as percent of control at 2000 nM by KINOMEscan assay relative to control; design: scale not given: the % may be the effect or the level left
[28] = test system: Epidermal growth factor receptor (Homo sapiens), P00533 [L858R]; test: Inhibition of human EGFR L858R mutant assessed as percent of control at 2000 nM by KINOMEscan assay relative to control; design: scale not given: the % may be the effect or the level left
[29] = biological target: Tyrosine-protein kinase ABL2 (Homo sapiens) (UniProt P42684); test: Inhibition of human ABL2 assessed as percent of control at 2000 nM by KINOMEscan assay relative to control; design: scale not given: the % may be the effect or the level left
[30] = biological target: Atypical kinase COQ8B, mitochondrial (Homo sapiens) (UniProt Q96D53); test: Inhibition of human ADCK4 assessed as percent of control at 2000 nM by KINOMEscan assay relative to control; design: scale not given: the % may be the effect or the level left
[31] = biological target: Serine/threonine-protein kinase tousled-like 2 (Homo sapiens) (UniProt Q86UE8); test: Inhibition of human TLK2 assessed as percent of control at 2000 nM by KINOMEscan assay relative to control; design: scale not given: the % may be the effect or the level left
Chain of Serine/threonine-protein kinase tousled-like 2 (Homo sapiens) (Q86UE8 whole entry, looked up): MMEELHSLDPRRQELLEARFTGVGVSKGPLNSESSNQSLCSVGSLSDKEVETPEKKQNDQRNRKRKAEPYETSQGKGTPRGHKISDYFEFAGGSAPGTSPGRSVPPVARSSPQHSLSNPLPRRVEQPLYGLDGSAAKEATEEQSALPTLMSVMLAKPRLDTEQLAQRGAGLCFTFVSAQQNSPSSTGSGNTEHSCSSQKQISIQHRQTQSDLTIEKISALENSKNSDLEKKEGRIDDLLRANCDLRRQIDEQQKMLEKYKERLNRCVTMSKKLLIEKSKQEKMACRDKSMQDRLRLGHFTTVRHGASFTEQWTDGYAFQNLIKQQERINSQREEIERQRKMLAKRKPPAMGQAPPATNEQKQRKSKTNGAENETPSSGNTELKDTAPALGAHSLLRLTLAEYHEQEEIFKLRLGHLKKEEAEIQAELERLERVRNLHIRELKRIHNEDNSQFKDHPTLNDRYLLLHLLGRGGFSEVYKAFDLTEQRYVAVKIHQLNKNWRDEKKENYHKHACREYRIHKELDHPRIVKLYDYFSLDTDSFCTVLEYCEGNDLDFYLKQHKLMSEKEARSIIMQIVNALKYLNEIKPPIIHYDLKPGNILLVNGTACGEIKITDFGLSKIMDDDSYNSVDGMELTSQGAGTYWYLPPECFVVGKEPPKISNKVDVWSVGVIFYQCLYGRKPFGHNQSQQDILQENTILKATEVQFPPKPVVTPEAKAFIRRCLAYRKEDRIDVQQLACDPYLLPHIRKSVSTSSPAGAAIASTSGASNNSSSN

Chain of Tyrosine-protein kinase ABL2 (Homo sapiens) (P42684 whole entry): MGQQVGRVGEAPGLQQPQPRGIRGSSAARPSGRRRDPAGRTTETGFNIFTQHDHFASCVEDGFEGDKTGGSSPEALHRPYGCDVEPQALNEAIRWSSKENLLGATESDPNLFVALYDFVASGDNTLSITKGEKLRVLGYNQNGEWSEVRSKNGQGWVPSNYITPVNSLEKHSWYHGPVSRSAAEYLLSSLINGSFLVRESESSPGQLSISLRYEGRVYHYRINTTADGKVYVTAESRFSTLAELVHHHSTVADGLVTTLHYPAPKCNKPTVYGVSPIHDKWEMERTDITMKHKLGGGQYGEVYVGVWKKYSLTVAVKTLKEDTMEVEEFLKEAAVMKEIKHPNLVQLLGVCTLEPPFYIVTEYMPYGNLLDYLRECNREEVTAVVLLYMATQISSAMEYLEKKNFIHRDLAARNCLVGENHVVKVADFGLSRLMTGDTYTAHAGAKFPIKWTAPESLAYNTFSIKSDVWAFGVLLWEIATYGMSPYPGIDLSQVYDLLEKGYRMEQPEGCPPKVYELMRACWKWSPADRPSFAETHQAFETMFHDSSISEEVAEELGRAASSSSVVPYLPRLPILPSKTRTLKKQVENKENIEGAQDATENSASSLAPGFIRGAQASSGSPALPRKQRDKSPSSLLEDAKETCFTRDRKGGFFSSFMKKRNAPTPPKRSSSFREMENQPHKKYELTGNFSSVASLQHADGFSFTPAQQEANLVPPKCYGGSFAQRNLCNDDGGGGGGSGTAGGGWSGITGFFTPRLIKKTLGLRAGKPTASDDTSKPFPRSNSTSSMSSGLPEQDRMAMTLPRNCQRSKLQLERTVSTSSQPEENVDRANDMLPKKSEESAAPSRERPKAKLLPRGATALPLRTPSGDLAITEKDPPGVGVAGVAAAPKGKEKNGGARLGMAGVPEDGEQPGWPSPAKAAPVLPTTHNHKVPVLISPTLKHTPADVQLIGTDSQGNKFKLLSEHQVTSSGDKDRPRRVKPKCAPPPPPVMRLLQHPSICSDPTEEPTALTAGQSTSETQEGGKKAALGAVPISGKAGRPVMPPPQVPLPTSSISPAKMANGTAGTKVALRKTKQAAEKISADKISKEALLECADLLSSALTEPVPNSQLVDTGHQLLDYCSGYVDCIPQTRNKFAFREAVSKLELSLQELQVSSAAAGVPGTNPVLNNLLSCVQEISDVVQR
Chain of STE20-like serine/threonine-protein kinase (Homo sapiens) (Q9H2G2 whole entry, looked up): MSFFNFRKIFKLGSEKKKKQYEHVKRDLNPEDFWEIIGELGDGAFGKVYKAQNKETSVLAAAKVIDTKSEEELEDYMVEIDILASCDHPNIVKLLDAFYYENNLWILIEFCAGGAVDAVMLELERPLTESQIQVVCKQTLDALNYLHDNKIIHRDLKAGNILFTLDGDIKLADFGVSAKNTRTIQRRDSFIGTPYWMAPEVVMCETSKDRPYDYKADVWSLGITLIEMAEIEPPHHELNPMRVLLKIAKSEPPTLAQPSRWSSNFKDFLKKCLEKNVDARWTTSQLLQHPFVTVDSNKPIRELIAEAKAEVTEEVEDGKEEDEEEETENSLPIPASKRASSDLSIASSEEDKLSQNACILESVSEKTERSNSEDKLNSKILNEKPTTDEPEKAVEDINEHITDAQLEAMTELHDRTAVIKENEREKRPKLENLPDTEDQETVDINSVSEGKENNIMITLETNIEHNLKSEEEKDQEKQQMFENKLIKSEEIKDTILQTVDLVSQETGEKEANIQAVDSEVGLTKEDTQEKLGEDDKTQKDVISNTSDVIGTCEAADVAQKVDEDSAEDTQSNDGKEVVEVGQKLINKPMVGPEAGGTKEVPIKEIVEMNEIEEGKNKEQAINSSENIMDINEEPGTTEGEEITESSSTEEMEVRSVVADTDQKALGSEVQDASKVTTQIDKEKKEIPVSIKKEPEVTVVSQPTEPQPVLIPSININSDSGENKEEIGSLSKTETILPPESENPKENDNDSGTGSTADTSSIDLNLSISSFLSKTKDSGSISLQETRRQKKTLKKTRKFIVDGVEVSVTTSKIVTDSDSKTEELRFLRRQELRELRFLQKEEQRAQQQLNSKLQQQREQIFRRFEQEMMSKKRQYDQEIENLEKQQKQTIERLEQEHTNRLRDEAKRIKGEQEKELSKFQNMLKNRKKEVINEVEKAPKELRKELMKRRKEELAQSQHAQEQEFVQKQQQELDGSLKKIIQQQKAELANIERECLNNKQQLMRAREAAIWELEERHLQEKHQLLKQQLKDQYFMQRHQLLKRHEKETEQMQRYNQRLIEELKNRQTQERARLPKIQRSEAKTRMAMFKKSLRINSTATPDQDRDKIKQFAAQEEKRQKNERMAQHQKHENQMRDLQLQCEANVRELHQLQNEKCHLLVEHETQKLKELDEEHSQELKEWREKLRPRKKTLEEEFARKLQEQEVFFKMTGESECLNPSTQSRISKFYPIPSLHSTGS
Chain of Mitogen-activated protein kinase kinase kinase 15 (Homo sapiens) (Q6ZN16 whole entry): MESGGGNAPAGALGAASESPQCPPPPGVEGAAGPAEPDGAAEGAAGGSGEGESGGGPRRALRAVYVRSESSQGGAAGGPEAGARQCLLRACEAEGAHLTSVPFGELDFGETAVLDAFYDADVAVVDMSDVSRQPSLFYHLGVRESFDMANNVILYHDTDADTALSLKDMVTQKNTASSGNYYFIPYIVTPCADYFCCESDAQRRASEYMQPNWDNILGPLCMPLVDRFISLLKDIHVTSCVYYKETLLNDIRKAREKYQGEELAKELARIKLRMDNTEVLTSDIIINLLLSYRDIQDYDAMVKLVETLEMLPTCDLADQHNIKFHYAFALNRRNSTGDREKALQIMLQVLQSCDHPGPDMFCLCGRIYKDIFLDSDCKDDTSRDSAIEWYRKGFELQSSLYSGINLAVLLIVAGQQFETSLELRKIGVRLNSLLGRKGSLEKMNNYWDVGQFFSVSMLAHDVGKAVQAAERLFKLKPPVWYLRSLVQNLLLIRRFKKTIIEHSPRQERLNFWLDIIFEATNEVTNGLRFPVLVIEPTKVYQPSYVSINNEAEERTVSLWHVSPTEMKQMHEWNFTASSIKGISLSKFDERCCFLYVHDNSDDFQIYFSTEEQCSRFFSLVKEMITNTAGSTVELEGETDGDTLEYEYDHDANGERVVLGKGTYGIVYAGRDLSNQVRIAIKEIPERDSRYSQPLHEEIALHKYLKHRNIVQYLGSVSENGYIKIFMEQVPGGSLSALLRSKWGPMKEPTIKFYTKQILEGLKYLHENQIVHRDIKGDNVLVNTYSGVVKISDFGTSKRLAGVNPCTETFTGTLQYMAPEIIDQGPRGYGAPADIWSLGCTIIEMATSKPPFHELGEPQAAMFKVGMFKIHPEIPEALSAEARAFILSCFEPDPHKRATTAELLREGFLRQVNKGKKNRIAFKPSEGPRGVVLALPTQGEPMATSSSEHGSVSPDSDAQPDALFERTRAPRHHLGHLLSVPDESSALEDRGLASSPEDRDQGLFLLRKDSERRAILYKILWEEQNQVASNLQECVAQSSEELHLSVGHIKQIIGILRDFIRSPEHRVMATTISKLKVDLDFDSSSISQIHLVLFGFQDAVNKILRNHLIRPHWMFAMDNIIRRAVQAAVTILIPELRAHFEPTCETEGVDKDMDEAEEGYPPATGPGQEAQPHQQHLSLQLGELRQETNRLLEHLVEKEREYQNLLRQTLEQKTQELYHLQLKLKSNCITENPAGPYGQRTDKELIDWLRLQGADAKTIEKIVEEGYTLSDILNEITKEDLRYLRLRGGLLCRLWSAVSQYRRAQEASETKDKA
Chain of Tyrosine-protein kinase ITK/TSK (Homo sapiens) (Q08881 whole entry): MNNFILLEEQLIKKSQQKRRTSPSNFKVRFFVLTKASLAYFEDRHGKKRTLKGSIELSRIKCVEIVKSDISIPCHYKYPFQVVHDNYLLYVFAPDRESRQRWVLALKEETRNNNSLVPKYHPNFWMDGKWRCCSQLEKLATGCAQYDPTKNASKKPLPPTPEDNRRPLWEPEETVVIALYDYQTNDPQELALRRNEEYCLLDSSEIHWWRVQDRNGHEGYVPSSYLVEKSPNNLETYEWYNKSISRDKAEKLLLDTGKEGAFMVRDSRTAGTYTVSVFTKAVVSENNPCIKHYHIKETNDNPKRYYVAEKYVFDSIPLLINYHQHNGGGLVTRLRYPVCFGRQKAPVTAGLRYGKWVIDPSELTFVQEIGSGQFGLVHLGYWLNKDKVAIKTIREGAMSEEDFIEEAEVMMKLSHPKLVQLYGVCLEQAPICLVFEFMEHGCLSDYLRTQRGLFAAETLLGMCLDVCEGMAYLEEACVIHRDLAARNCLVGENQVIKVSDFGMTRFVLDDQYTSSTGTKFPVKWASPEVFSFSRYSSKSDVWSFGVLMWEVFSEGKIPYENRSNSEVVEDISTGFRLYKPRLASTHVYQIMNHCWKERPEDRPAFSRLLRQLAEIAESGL

**Q.** For CN(C)C(=O)c1ccc(N2CCCN(c3ccnc4sc(C(N)=O)c(N)c34)CC2)cc1, which Activity [1] is on record?
**A.** 100%

**Q.** What about the Activity [2] of the same compound?
**A.** 81% and 83%

**Q.** And the Activity [3]?
**A.** 93% and 83%

**Q.** What about the Activity [4] of the same compound?
**A.** 88% and 87%

**Q.** And the Activity [5]?
**A.** 100% and 99%

**Q.** What about the Activity (Myc-CaP [6]) of the same compound?
**A.** Active

**Q.** And the Activity [7]?
**A.** 100% and 89%

**Q.** And the Activity [8]?
**A.** 87% and 93%

**Q.** And the Activity [9]?
**A.** 100%

**Q.** What about the Activity [10] of the same compound?
**A.** 99% and 92%

**Q.** And the Activity [11]?
**A.** 100%

**Q.** And the Activity [12]?
**A.** 93% and 100%

**Q.** And the Activity [13]?
**A.** 92% and 81%

**Q.** What about the Activity [14] of the same compound?
**A.** 56% and 54%

**Q.** And the Activity [15]?
**A.** 99% and 100%

**Q.** What about the Activity [16] of the same compound?
**A.** 94% and 77%

**Q.** What about the Activity [17] of the same compound?
**A.** 63% and 76%

**Q.** What about the Activity [18] of the same compound?
**A.** 97% and 92%

**Q.** And the Activity [19]?
**A.** 99% and 97%

**Q.** What about the Activity [20] of the same compound?
**A.** 100% and 92%

**Q.** What about the Activity [21] of the same compound?
**A.** 94% and 86%

**Q.** And the Activity [22]?
**A.** 83% and 80%

**Q.** What about the Activity (Myc-CaP [23]) of the same compound?
**A.** Active

**Q.** And the Activity [24]?
**A.** 100% and 87%

**Q.** What about the Activity [25] of the same compound?
**A.** 94% and 84%

**Q.** And the Activity [26]?
**A.** 92% and 87%

**Q.** And the Activity [27]?
**A.** 100% and 95%

**Q.** And the Activity [28]?
**A.** 99% and 93%

**Q.** And the Activity [29]?
**A.** 85% and 91%

**Q.** And the Activity [30]?
**A.** 95% and 83%

**Q.** And the Activity [31]?
**A.** 100% and 97%
